Source: EP4728880A1, “CORDYCEPS SINENSIS FERMENTATION COMPOSITION” (Hangzhou Zhongmeihuadong Pharmaceutical Jiangdong Co., Ltd, priority 2023, dated 2024)
Where two headings read alike, the source gives them in different places.

Experiments:
[1] = Hydroxyl radical scavenging rate (Fenton colorimetric method); assay type: biochemical
From the text: IV. Detection of hydroxyl radical scavenging rate (Fenton colorimetric method)
H2O2/Fe^2+ produces a hydroxyl radical through a Fenton reaction, Fe^2+ is oxidized into Fe^3+, and red phenanthroline-Fe^2+ is oxidized into colorless phenanthroline-Fe^3+, so that the maximum absorption peak of the phenanthroline-Fe^2+ disappears at 536 nm. The absorbance change at 530-540 nm may be determined by a spectrophotometer. Thus, content change of the hydroxyl radical can be calculated, that is, the hydroxyl radical scavenging rate or scavenging capacity of the sample can be calculated.
• 1. 0.2 g of mycelia powder was weighed; 2 mL of purified water was added; the mycelia powder and the water were uniformly mixed; the mixture was placed at a room temperature for standing for 4 h; the solution was centrifuged at 10000 rpm for 10 min; and the supernatant was taken for later use. • 2. Other samples served as reference solutions.
The spectrophotometer was started for preheating for 30 min; the wavelength was adjusted to 536 nm; and the purified water was subjected to zero setting.
A blank tube, an undamaged tube, a damaged tube, a control tube and a determination tube were set according to the following table; the solutions were added in sequence; and the solutions were uniformly mixed and placed in a water bath at 37°C for 1 h.
(§1) Calculation: To-be-tested sample•OH scavenging rate (%)=[(A3-A3')-(A2-A0)]/(A1-A2)×100% • V. Detection methods of adenosine, mannitol, total amino acid content and water were conducted according to the detection method under the fermented Cordyceps sinensis. mycelia powder item in accordance with National Drug Standards. • VI. Detection method of tyrosinase inhibition rate • 1. Preparation of a solution: • (1) Preparation of a PBS: 3.4022 g of potassium dihydrogen phosphate and 5.7055 g of potassium phosphate dibasic trihydrate were respectively weighed and then dissolved with an appropriate amount of distilled water; the volume was fixed in a 1000 mL volumetric flask; the solution was shaken up to obtain the PBS having a pH value of 6.81 and a concentration of 0.05 mol·L-1, and the PBS was kept in a dark place at 4°C in a refrigerator. • (2) Preparation of an L-Dopa solution: 0.0395 g of L-Dopa was precisely weighed and dissolved with the prepared PBS; the solution was transferred into a 100 mL volumetric flask; the volume was fixed; the solution was shaken up and subjected to ultrasonic treatment to obtain the L-Dopa solution of 2 mmol·L-1. The solution was used when prepared. • (3) Preparation of a TYR ([…]) solution: 25 KU of the TYR was totally dissolved with a small amount of PBS; the solution was repeatedly washed for several times; the washing liquid was transferred into the […] volumetric flask; the volume was fixed with the PBS; the liquid was shaken up to obtain a TYR solution of 250 U·mL-1; then the mother solution was diluted to 125 U·mL-1; and the solution was preserved at -20°C in the refrigerator for later use. • 2. Preparation of samples: 250 mg/ml of an erythritol mother solution: 2.5 g of erythritol was weighed, and 10 ml of purified water was added; 250 mg/ml of a mannitol mother solution: 7.5 g of mannitol was weighed, 30 ml of purified water was added, the mixture was heated and dissolved; and the solution was diluted into the needed concentration according to each reaction system and then added into the detection system. • 3. Determination of the sample on TYR inhibitory activity

tyrosinase = experiment: Tyrosinase inhibition rate (L-Dopa substrate, absorbance at 475 nm); assay type: biochemical; conditions: combination of both amounts, negative = activation rate
Experimental: as §1
The reaction system was shown as Table 4.2. […] A calculation formula of the inhibition rate was as follows: when the calculated result was negative, the absolute value of the negative was an activation rate.
Inhibition rate = ((A1−A2)−(A3−A4))/(A1 −A2) × 100% [formula] • A1: absorbance of a reaction solution with TYR instead of the sample determined at 475 nm; • A2: absorbance of a reaction solution without the sample nor the TYR determined at 475 nm; • A3: absorbance of a reaction solution with both the sample and the TYR determined at 475 nm; • A4: absorbance of a reaction solution with the sample instead of the TYR determined at 475 nm.

[2] = in water, at 25°C; cited from earlier work
[3] = cited from earlier work
[4] = cited from earlier work; remark: listed apart in the source
[5] = EGT 0.4 ml (0.02 mg/ml), Adenosine 0.4 ml (0.02 mg/ml), combination 0.2 ml (0.02 mg/ml) + 0.2 ml (0.02 mg/ml)
[6] = Erythritol 12.5 mg (6.25 mg/ml), Adenosine 0.15 ml (0.75 mg/ml), combination of both amounts
[7] = Erythritol 12.5 mg (6.25 mg/ml), Adenosine 0.15 ml (2.5 mg/ml), combination of both amounts
[8] = Erythritol 0.75 mg (3.75 mg/ml), Mannitol 2.5 mg (12.5 mg/ml), combination of both amounts
[9] = Erythritol 1.5 mg (7.5 mg/ml), Mannitol 2.5 mg (12.5 mg/ml), combination of both amounts
[10] = Erythritol 1.75 mg (8.75 mg/ml), Mannitol 2.5 mg (12.5 mg/ml), combination of both amounts
[11] = Erythritol 2 mg (10 mg/ml), Mannitol 2.5 mg (12.5 mg/ml), combination of both amounts
[12] = Erythritol 2.5 mg (12.5 mg/ml), Mannitol 2.5 mg (12.5 mg/ml), combination of both amounts
[13] = Erythritol 0.75 mg (3.75 mg/ml), Mannitol 1.25 mg (6.25 mg/ml)
[14] = Erythritol 1.25 mg (6.25 mg/ml), Mannitol 1.25 mg (6.25 mg/ml)
[15] = Erythritol 1.75 mg (8.75 mg/ml), Mannitol 2.5 mg (12.5 mg/ml)

| SMILES | OH clearance rate (%) [1, 5] | OH clearance rate (%) [1, 6] | OH clearance rate (%) [1, 7] | OH clearance rate (%) ([1]; EGT 0.4 ml (0.05 mg/ml), Erythritol 0.4 ml (0.05 mg/ml), combination 0.2 ml (0.05 mg/ml) + 0.2 ml (0.05 mg/ml)) | OH clearance rate (%) [1, 8] | OH clearance rate (%) [1, 9] | OH clearance rate (%) [1, 10] | OH clearance rate (%) [1, 11] | OH clearance rate (%) [1, 12] | Tyrosinase inhibition rate (%) (tyrosinase; [13]) | Tyrosinase inhibition rate (%) (tyrosinase; [14]) | Tyrosinase inhibition rate (%) (tyrosinase; [15]) | solubility [2] | absorbed in small intestine via passive diffusion ([3]; after ingestion by a human body) | absorbed erythritol oxidized into erythrose in blood ([3]; human body, share of the absorbed amount) | intestinal tolerance ([4]; children aged 4-6 years, beverages containing 15 g) | intestinal tolerance ([4]; healthy volunteers aged 18-24 years, 20-35 g in a liquid form) | intestinal tolerance ([4]; healthy volunteers aged 18-24 years, intake of 50 g) |
| --- | --- | --- | --- | --- | --- | --- | --- | --- | --- | --- | --- | --- | --- | --- | --- | --- | --- | --- |
| Nc1ncnc2c1ncn2[C@@H]1O[C@H](CO)[C@@H](O)[C@H]1O [Adenosine, adenosine] | 0.00% | 10.57% | 7.17% |  |  |  |  |  |  |  |  |  |  |  |  |  |  |  |
| C[N+](C)(C)[C@@H](Cc1c[nH]c(=S)[nH]1)C(=O)[O-] [EGT, Ergothioneine] | -5.70% |  |  | 2.08% |  |  |  |  |  |  |  |  |  |  |  |  |  |  |
| OCC(O)C(O)CO (centres unmarked) [Erythritol, 1,2,3,4-butanetetraol] |  | -8.17% | -5.8% |  | 5.14% | 2.44% | 11.76% | 20.15% | 11.45% | -1.06% | 1.71% | 6.39% | 37% | 80-90% | 5-10% | the diarrhea and/or a severe intestinal symptom is not observed | good intestinal tolerance without any adverse symptom | symptoms such as diarrhea and nausea were observed |
| OC[C@@H](O)[C@@H](O)[C@H](O)[C@H](O)CO [Mannitol, D-mannitol] |  |  |  |  | 17.91% | 7.48% | 7.48% | 7.48% | 7.48% | 3.62% | 2.51% | 2.51% |  |  |  |  |  |  |
